Where only a bound is given, the exact number is not on record here.

The target in data set [1] is T1, ENaC (Epithelial Sodium Channel) (Mus musculus, UniProt Q61180+Q9WU38+Q9WU39).
T1 construct: Mouse kidney M-1 cells were cultivated in DMEM; endogenous in cells; host or cells: mouse kidney M-1 cells (cortical collecting duct line), no transfection mentioned
T1 sequence (Q61180 1-699): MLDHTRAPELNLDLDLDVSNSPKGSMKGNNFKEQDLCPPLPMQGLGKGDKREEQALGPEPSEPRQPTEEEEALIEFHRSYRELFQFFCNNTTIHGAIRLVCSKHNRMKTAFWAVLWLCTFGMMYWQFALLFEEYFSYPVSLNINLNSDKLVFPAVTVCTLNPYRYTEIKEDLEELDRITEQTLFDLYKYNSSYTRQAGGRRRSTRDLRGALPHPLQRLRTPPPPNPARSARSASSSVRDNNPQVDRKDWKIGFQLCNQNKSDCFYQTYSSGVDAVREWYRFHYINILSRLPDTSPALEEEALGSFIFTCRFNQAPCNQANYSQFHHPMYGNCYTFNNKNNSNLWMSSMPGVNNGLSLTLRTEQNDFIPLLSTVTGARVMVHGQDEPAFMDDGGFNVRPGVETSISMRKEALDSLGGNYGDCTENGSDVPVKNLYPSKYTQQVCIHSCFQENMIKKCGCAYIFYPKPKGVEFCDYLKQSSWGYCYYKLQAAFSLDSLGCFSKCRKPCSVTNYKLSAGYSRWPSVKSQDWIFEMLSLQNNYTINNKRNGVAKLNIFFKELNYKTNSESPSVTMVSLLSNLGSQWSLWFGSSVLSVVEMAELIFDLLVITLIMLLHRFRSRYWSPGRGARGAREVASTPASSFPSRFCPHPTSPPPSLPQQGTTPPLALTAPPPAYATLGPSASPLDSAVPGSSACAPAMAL
T1 sequence (Q9WU38 1-638): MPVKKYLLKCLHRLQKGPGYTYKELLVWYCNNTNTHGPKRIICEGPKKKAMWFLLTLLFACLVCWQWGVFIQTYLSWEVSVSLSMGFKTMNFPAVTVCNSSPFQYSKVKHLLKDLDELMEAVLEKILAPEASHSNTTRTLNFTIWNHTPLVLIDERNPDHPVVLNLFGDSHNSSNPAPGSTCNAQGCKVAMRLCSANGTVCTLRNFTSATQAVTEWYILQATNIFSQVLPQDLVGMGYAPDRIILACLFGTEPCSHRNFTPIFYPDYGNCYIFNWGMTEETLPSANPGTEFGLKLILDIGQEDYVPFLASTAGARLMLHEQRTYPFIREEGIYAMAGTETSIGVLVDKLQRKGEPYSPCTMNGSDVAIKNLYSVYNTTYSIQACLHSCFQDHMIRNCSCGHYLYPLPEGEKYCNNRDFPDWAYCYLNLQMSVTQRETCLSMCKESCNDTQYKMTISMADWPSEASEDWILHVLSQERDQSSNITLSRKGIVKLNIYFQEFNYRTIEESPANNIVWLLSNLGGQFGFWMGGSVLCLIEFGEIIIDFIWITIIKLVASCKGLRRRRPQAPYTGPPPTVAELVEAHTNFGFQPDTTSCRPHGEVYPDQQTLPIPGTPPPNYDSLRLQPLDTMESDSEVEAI
T1 sequence (Q9WU39 1-655): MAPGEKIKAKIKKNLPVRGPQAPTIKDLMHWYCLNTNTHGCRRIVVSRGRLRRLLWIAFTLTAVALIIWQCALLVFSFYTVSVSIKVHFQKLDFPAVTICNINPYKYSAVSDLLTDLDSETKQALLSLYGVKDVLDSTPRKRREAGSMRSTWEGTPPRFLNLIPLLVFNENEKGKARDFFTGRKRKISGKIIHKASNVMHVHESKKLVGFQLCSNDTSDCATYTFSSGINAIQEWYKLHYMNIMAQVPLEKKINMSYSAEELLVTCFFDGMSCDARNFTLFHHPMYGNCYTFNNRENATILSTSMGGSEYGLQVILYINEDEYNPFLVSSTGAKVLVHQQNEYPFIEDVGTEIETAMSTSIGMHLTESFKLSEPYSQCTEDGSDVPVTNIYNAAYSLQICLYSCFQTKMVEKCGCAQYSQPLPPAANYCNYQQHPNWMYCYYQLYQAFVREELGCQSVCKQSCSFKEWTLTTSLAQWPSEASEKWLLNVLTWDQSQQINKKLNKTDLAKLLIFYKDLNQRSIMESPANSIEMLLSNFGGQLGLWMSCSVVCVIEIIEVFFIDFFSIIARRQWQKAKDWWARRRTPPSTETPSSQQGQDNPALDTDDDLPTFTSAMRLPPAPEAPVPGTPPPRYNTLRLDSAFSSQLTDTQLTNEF
Briefly: Ussing Chamber assay (short circuit current, amiloride sensitive I_SC). The conditions noted are these: Mouse kidney M-1 cells, apical application, 37° C. It is filed as cell-based. On the procedure:
The IC50 values of the example compounds given above were determined in the Ussing Chamber assay. Ussing Chamber: Mouse kidney M-1 cells were cultivated in DMEM containing 5% FCS and 5 μM dexamethasone for 10 to 12 days on polyester transwell filters. Filters were inserted into a teflon-coated well-plate which fit into the ussing chamber system. Prior to measurement the medium of M-1 cells was replaced with Caco-2 transport buffer (Invitrogen, Germany). During measurements, the Ussing chamber temperature was kept at 37° C. Short circuit currents (I_sc) were measured in the voltage-clamp mode with the software package Lab View for data acquisition and analysis. The transepithelial electrical resistance (TEER) was determined by the application of voltage steps of ±5 mV every 5 sec. Compounds were administered at a final concentration of 3 μM or at increasing concentrations (1-3-10 μM) to the apical solution. At the end of each experiment the amiloride sensitive I_SC was measured by adding 3 μM amiloride to the apical compartment. Results are expressed as inhibition in percent of the amiloride effect or as IC50.

Data set [2] can be described thus: Permeability in CALU-3 cells. It is filed as in vitro ADME. The conditions noted are these: human, CALU-3 monolayers, pH 7.4, 37° C., 10 μM compound; for Papp A→B at 90 min, 10 μM: apical-to-basal; for Papp B→A at 90 min, 10 μM: basal-to-apical. How it is done:
Permeability measurements across polarized, confluent CALU-3 cell monolayers grown on permeable filter supports are used to provide information on the potential of a compound to pass the lung epithelium. Apparent permeability coefficients (Papp) of the compounds across the CALU-3 cell monolayers are measured (pH 7.4, 37° C.) in apical-to-basal (AB) and basal-to-apical (BA) transport direction. […] CALU-3 cells (1-2×10^5 cells/1 cm^2 area) are seeded on filter inserts (Costar transwell polycarbonate filters, 0.4 μm pore size) and cultured (for 10-12 days DMEM) until tight monolayers are formed. Compounds of interest are dissolved in appropriate solvent (DMSO, 10 mM stock solution). Stock solutions are diluted with HTP-4 buffer (128.13 mM NaCl, 5.36 mM KCl, 1 mM MgSO4, 1.8 mM CaCl2, 4.17 mM NaHCO3, 1.19 mM Na2HPO4×7H2O, 0.41 mM NaH2PO4×H2O, 15 mM HEPES, 20 mM glucose, 0.25% BSA, pH 7.4) to prepare the transport solutions (10 μM compound, final DMSO<=0.5%). The transport solution (TL) is applied to the apical or basolateral donor side for measuring A-B or B-A permeability (3 filter replicates), respectively. The receiver side contains the same buffer as the donor side. After 30 min of accommodation, samples are collected at the start t0=0 min and at the end of the experiment tn=90 min from the donor and at 0, 30, 60, and 90 min also from the receiver chamber. Volume removed is replenished by HTP-4 buffer. The compound concentration in the samples is measured by HPLC-MS/MS or scintillation counting. The permeability coefficient (Papp) and efflux ratio are calculated according to: Papp [cm/s]=(concentration receiver [nM]*volume receiver [mL]/time interval [sec])*(1/filter area)*(1/donor concentration [nM]).

Broadly, the IC50 is the concentration at which inhibition is half-maximal. Read a low IC50 as greater potency in that assay. One may read the Papp A→B as how fast a substance crosses the layer from the apical side. The term Papp B→A denotes how fast a substance crosses the layer from the basolateral side. Molecule `CC[n+]1c(CNC(=O)c2nc(Cl)cnc2N)n(C[C@@H]2CCCO2)c2cc(OCC(=O)N3CC[S+]([O-])CC3)ccc21.O=C([O-])C(F)(F)F` [Example 1.01] had an IC50 in data set [1] of 10 nM. In data set [2], this molecule gave a Papp A→B at 90 min, 10 μM of 0.8 ×10⁻⁶ cm/s and a Papp B→A at 90 min, 10 μM of 0.3 ×10⁻⁶ cm/s.

For `CC[n+]1c(CNC(=O)c2nc(Cl)cnc2N)n(CCO)c2cc(OCC(=O)NCc3ccc(P(C)(C)=O)cc3)ccc21.O=C([O-])C(F)(F)F` [Example 1.02], the IC50 in data set [1] was 10 nM. In data set [2], the Papp A→B at 90 min, 10 μM stood at 0.6 ×10⁻⁶ cm/s and the Papp B→A at 90 min, 10 μM came to 0.3 ×10⁻⁶ cm/s.

As for `CCn1c(CNC(=O)c2nc(Cl)cnc2N)[n+](CC2CCOCC2)c2ccc(OCC(=O)N(Cc3nc(C)ccc3[O-])C[C@H](C)O)cc21.O=C(O)C(F)(F)F.O=C(O)C(F)(F)F` [Example 1.03], the IC50 in data set [1] was 8 nM. In data set [2], this molecule yielded a Papp A→B at 90 min, 10 μM of 0.4 ×10⁻⁶ cm/s and a Papp B→A at 90 min, 10 μM of 0.1 ×10⁻⁶ cm/s.

As to `CCn1c(CNC(=O)c2nc(Cl)cnc2N)[n+](CC)c2ccc(OCC(=O)NCCCN)cc21.O=C(O)C(F)(F)F.O=C([O-])C(F)(F)F` [Example 2.01], in data set [2], the Papp A→B at 90 min, 10 μM was 0.2 ×10⁻⁶ cm/s and the Papp B→A at 90 min, 10 μM was determined as 0.5 ×10⁻⁶ cm/s.

In the case of `CCn1c(CNC(=O)c2nc(Cl)cnc2N)[n+](CC)c2ccc(OCC(=O)NCCNC)cc21` [Example 2.02], the IC50 in data set [1] came out at 2 nM.

Turning to `CCn1c(CNC(=O)c2nc(Cl)cnc2N)[n+](CC)c2ccc(OCC(=O)N3CCC(N)CC3)cc21` [Example 2.03], the IC50 in data set [1] was 1 nM.

Turning to `CCn1c(CNC(=O)c2nc(Cl)cnc2N)[n+](CC)c2ccc(OCC(=O)NCCOCP(C)(C)=O)cc21.O=C([O-])C(F)(F)F` [Example 2.04], the midpoint of inhibition in data set [1], the IC50, lay at 3 nM. Also, in data set [2], the apical-to-basolateral permeability (Papp A→B) at 90 min, 10 μM is below 0.7 ×10⁻⁶ cm/s and the Papp B→A at 90 min, 10 μM is 0.4 ×10⁻⁶ cm/s.

For `CCn1c(CNC(=O)c2nc(Cl)cnc2N)[n+](CC)c2ccc(OCC(=O)N(Cc3nc(C)ccc3O)C[C@H](C)O)cc21.O=C([O-])C(F)(F)F` [Example 2.05], half-maximal inhibition in data set [1] (IC50) was put at 3 nM. Also, in data set [2], the Papp A→B at 90 min, 10 μM was found to be 0.4 ×10⁻⁶ cm/s and the Papp B→A at 90 min, 10 μM is 0.1 ×10⁻⁶ cm/s.

In the case of `CCn1c(CNC(=O)c2nc(Cl)cnc2N)[n+](CC)c2ccc(OCC(=O)NCCN(C)C)cc21.O=C[O-]` [Example 2.06], the IC50 in data set [1] turned out to be 1 nM. In data set [2], this molecule showed a Papp A→B at 90 min, 10 μM below 1 ×10⁻⁶ cm/s and a Papp B→A at 90 min, 10 μM of 0.2 ×10⁻⁶ cm/s.
